# Laboratory results reported in patent US20230374038A1, “MODULATORS OF CYSTIC FIBROSIS TRANSMEMBRANE CONDUCTANCE REGULATOR” (VERTEX PHARMACEUTICALS INCORPORATED, priority 2020, published 2023).
# pEC50: −log10 of the molar value.
# Tests used:
# Assay type in all cases: cell-based
# CFTR [1] = target: T1, CFTR (Homo sapiens, UniProt P13569, DEL508-508); assay: HBE2 Assay: Ussing chamber assay of CFTR-mediated short-circuit currents in F508del/MF-HBE cells with 44 nM (6R,12R)-17-amino-12-methyl-6,15-bis(trifluoromethyl)-13,19-dioxa-3,4,18-triazatricyclo[12.3.1.12,5]nonadeca-1(18),2,4,14,16-pentaen-6-ol; settings: 3 μM with 44 nM (6R,12R)-17-amino-12-methyl-6,15-bis(trifluoromethyl)-13,19-dioxa-3,4,18-triazatricyclo[12.3.1.12,5]nonadeca-1(18),2,4,14,16-pentaen-6-ol, 18-24 hours, 20% human serum
# T1 construct: endogenous in cells; host or cells: primary human bronchial epithelial cells, F508del/MF genotype
# Method: Ussing chamber experiments were performed using human bronchial epithelial (HBE) cells derived from CF subjects heterozygous for F508del and a minimal function CFTR mutation (F508del/MF-HBE) and cultured as previously described (Neuberger T, Burton B, Clark H, Van Goor F Methods Mol Biol 2011:741:39-54). After four days the apical media was removed, and the cells were grown at an air liquid interface for >14 days prior to use.
# To isolate the CFTR-mediated short-circuit (ISC) current, F508del/MF-HBE grown on Costar® Snapwell™ cell culture inserts were mounted in an Ussing chamber and the transepithelial ISC was measured under voltage-clamp recording conditions (Vhold=0 mV) at 37° C. The basolateral solution contained (in mM) 145 NaCl, 0.83 K2HPO4, 3.3 KH2PO4, 1.2 MgCl2, 1.2 CaCl2), 10 Glucose, 10 HEPES (pH adjusted to 7.4 with NaOH) and the apical solution contained (in mM) 145 NaGluconate, 1.2 MgCl2, 1.2 CaCl2), 10 glucose, 10 HEPES (pH adjusted to 7.4 with NaOH) and 30 μM amiloride to block the epithelial sodium channel. Forskolin (20 μM) was added to the apical surface to activate CFTR, followed by apical addition of a CFTR inhibitor cocktail consisting of BPO, GlyH-101, and CFTR inhibitor 172 (each at 20 μM final assay concentration) to specifically isolate CFTR currents. The CFTR-mediated ISC (μA/cm^2) for each condition was determined from the peak forskolin response to the steady-state current following inhibition.
# The activity of the CFTR corrector compounds on the CFTR-mediated ISC was determined in Ussing chamber studies as described above. The F508del/MF-HBE cell cultures were either incubated with the corrector compounds at a range of concentrations in combination with 44 nM (6R,12R)-17-amino-12-methyl-6,15-bis(trifluoromethyl)-13,19-dioxa-3,4,18-triazatricyclo[12.3.1.12,5]nonadeca-1(18),2,4,14,16-pentaen-6-ol or were incubated with the corrector compounds at a single fixed concentration of 1 and 3 μM in combination with 44 nM (6R,12R)-17-amino-12-methyl-6,15-bis(trifluoromethyl)-13,19-dioxa-3,4,18-triazatricyclo[12.3.1.12,5]nonadeca-1(18),2,4,14,16-pentaen-6-ol for 18-24 hours at 37° C. and in the presence of 20% human serum. The concentration of corrector compounds with 44 nM (6R,12R)-17-amino-12-methyl-6,15-bis(trifluoromethyl)-13,19-dioxa-3,4,18-triazatricyclo[12.3.1.12,5]nonadeca-1(18),2,4,14,16-pentaen-6-ol during the 18-24 hours incubations was kept constant throughout the Ussing chamber measurement of the CFTR-mediated ISC to ensure compounds were present throughout the entire experiment.
# F508del = target: T2, F508del (Homo sapiens, UniProt P13569, DEL508-508); assay: 3T3 Assay: membrane potential optical assay for F508del correctors in NIH 3T3 cells; settings: for pEC50: F508del corrector assay; for Emax: NIH3T3, F508del corrector assay, read-out: 3T3 Max Activity
# T2 construct: expressed in transfected cells; host or cells: NIH3T3 mouse fibroblasts
# Excerpt: The assay utilizes fluorescent voltage sensing dyes to measure changes in membrane potential using a fluorescent plate reader (e.g., FLIPR III, Molecular Devices, Inc.) as a readout for increase in functional F508del in NIH 3T3 cells. The driving force for the response is the creation of a chloride ion gradient in conjunction with channel activation by a single liquid addition step after the cells have previously been treated with compounds and subsequently loaded with a voltage sensing dye.
# To identify correctors of F508del, a single-addition HTS assay format was developed. This HTS assay utilizes fluorescent voltage sensing dyes to measure changes in membrane potential on the FLIPR III as a measurement for increase in gating (conductance) of F508del in F508del NIH 3T3 cells. The F508del NIH 3T3 cell cultures were incubated with the corrector compounds at a range of concentrations for 18-24 hours at 37° C., and subsequently loaded with a redistribution dye. The driving force for the response is a Cl^− ion gradient in conjunction with channel activation with forskolin in a single liquid addition step using a fluorescent plate reader such as FLIPR III.
# Bath Solution #1: (in mM) NaCl 160, KCl 4.5, CaCl2) 2, MgCl2 1, HEPES 10, pH 7.4 with NaOH.
# Chloride-free bath solution: Chloride salts in Bath Solution #1 (above) are substituted with gluconate salts.
# NIH3T3 mouse fibroblasts stably expressing F508del are used for optical measurements of membrane potential. The cells are maintained at 37° C. in 5% CO2 and 90% humidity in Dulbecco's modified Eagle's medium supplemented with 2 mM glutamine, 10% fetal bovine serum, 1×NEAA, b-ME, 1× pen/strep, and 25 mM HEPES in 175 cm^2 culture flasks. For all optical assays, the cells were seeded at ˜20,000/well in 384-well matrigel-coated plates. For the correction assays, the cells are cultured at 37° C. with and without compounds for 16-24 hours.
# CFTR [2] = target: CFTR (Homo sapiens, UniProt P13569); assay: Membrane Potential Dye, Enteroid Assay A; settings: for pEC50: read-out: Ent. A EC50
# CFTR (Homo sapiens, UniProt P13569), sequence (P13569 with tags, fused parts or gaps DEL508-508): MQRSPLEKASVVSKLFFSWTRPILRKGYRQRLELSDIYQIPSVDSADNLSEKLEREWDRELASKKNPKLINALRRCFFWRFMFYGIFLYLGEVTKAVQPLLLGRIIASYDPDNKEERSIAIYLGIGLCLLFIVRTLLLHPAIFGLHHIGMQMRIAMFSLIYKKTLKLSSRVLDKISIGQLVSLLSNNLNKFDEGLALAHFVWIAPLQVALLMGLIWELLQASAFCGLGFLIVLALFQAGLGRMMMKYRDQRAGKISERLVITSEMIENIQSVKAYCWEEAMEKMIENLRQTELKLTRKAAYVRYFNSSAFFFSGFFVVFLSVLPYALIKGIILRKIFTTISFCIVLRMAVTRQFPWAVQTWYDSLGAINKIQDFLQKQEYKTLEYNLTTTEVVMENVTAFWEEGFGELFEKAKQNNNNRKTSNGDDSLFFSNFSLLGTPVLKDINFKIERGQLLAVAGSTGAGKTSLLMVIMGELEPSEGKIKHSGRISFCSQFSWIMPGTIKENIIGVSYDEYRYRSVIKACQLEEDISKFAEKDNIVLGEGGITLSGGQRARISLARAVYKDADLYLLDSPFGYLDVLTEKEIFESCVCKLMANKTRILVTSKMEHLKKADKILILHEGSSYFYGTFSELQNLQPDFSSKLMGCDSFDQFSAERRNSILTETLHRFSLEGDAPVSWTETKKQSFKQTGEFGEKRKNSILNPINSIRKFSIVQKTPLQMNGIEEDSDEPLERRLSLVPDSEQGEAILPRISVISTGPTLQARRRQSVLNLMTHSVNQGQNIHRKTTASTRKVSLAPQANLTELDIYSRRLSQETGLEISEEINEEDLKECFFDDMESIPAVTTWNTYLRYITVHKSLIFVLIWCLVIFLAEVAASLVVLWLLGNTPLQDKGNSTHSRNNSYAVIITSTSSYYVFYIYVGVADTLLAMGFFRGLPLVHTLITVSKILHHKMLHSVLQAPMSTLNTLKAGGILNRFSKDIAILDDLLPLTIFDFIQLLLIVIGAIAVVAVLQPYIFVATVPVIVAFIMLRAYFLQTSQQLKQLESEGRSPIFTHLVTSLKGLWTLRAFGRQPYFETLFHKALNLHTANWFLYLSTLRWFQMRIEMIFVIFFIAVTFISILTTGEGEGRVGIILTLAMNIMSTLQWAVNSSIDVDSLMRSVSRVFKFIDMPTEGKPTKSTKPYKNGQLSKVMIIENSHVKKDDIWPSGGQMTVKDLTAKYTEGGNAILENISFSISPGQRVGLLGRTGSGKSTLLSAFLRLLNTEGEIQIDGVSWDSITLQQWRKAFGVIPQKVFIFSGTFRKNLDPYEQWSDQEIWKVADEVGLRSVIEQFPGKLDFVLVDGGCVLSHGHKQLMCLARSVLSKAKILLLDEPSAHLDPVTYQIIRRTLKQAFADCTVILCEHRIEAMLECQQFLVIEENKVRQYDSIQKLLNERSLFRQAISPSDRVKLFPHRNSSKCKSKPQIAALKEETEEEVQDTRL
# T1 sequence (P13569 with tags, fused parts or gaps DEL508-508): as above
# T2 sequence (P13569 with tags, fused parts or gaps DEL508-508): as above
SMILES,HBE2 Activity at 3 μM (%) (CFTR [1]),pEC50 (F508del),Emax (F508del),Ent. A Max Activity (CFTR [2]),pEC50 (CFTR [2])
"Cc1cccc(C)c1-c1nc2cc(c1C(F)(F)F)OC[C@@H](CC(C)(C)C)N(Cc1cncc(N(C)C3CCC3)n1)C(=O)c1cccc(c1)S(=O)(=O)N2 [Compound 363, (11R)-12-[[6-[Cyclobutyl(methyl)amino]pyrazin-2-yl]methyl]-6-(2,6-dimethylphenyl)-11-(2,2-dimethylpropyl)-2,2-dioxo-7-(trifluoromethyl)-9-oxa-2λ^6-thia-3,5,12-triazatricyclo[12.3.1.14,8]nonadeca-1(18),4(19),5,7,14,16-hexaen-13-one]",+++ (+++ is >60%),,,,
CCc1c2nc(nc1-c1ccccc1COCCOC)NS(=O)(=O)c1cccc(c1)NC(=O)c1cccc(c1)O2 [Compound 11],,> 6.00,> 60%,,
"Cc1cccc(CCC(C)C)c1-c1nc2nc(c1C)OC[C@@H](CC(C)(C)C)N(Cc1ncc(OC(C)C)cn1)C(=O)c1cccc(c1)S(=O)(=O)N2 (atropisomer, axis not shown; (M)) [Compound 333, (5M,11R)-11-(2,2-Dimethylpropyl)-7-methyl-6-[2-methyl-6-(3-methylbutyl)phenyl]-12-{[5-(propan-2-yloxy)pyrimidin-2-yl]methyl}-9-oxa-2λ^6-thia-3,5,12,19-tetraazatricyclo[12.3.1.14,8]nonadeca-1(17),4(19),5,7,14(18),15-hexaene-2,2,13-trione]",+++ (+++ is >60%),,,,
"CCc1c2nc(nc1-c1ccccc1CC(C)C)NS(=O)(=O)c1cccc(c1)NC(=O)c1cccc(c1)O2 [Compound 3, 4-Ethyl-5-(2-isobutylphenyl)-9,9-dioxo-2-oxa-9λ^6-thia-6,8,15,23-tetrazatetracyclo[15.3.1.13,7.110,14]tricosa-1(21),3,5,7(23),10,12,14(22),17,19-nonaen-16-one]",,> 6.00,> 60%,+++ (+++ is >60%),> 6.00
"Cc1cccc(OC(C)C)c1-c1nc2nc(c1C)OC[C@@H](CC(C)(C)C)N(Cc1ncc(N3CCC(C)(C)C3)cn1)C(=O)c1cccc(c1)S(=O)(=O)N2 (atropisomer, axis not shown) [Compound 356]",+++ (+++ is >60%),,,,
"Cc1cccc(C)c1-c1nc2nc(c1C)OC[C@@H](CC(C)(C)C)N(c1cnn(C)c1CC(C)C)C(=O)c1cccc(c1)S(=O)(=O)N2 [Compound 364, (11R)-6-(2,6-Dimethylphenyl)-11-(2,2-dimethylpropyl)-12-(5-isobutyl-1-methyl-pyrazol-4-yl)-7-methyl-2,2-dioxo-9-oxa-2λ^6-thia-3,5,12,19-tetrazatricyclo[12.3.1.14,8]nonadeca-1(18),4(19),5,7,14,16-hexaen-13-one]",+++ (+++ is >60%),,,,
"CCc1c2nc(nc1-c1ccccc1C(C)C)NS(=O)(=O)c1cccc(c1)NC(=O)c1cc(ccc1Cl)O2 [Compound 5, 18-Chloro-4-ethyl-5-[2-(propan-2-yl)phenyl]-2-oxa-9λ^6-thia-6,8,15,23-tetraazatetracyclo[15.3.1.13,7.110,14]tricosa-1(20),3(23),4,6,10(22),11,13,17(21),18-nonaene-9,9,16-trione]",,> 6.00,> 60%,+++ (+++ is >60%),> 6.00
CCc1c2nc(nc1-c1cccc(C)c1C)NS(=O)(=O)c1cccc(c1)NC(=O)c1cccc(c1)O2 [Compound 17],,> 6.00,> 60%,,
CCc1c2nc(nc1-c1ccccc1CN(C)C)NS(=O)(=O)c1cccc(c1)NC(=O)c1cccc(c1)O2 [Compound 10],,,< 30%,,
CCc1c2nc(nc1-c1ccccc1OC(C)C)NS(=O)(=O)c1cccc(c1)NC(=O)c1cccc(c1)O2 [Compound 29],,> 6.00,> 60%,+ (+ is <30%),
CCc1c2nc(nc1-c1ccccc1OCC(C)C)NS(=O)(=O)c1cccc(c1)NC(=O)c1cccc(c1)O2 [Compound 26],,> 6.00,> 60%,+ (+ is <30%),5.52 to 6.00
CCc1c2nc(nc1-c1c(C)cc(C)cc1C)NS(=O)(=O)c1cccc(c1)NC(=O)c1cccc(c1)O2 [Compound 19],,> 6.00,> 60%,,
Cc1ccc2cc1Oc1nc(nc(-c3c(C)cccc3C)c1Cl)NS(=O)(=O)c1cccc(c1)NC2=O [Compound 8],,> 6.00,> 60%,,
"CCc1c2nc(nc1-c1c(C)c(C)c(C)c(C)c1C)NS(=O)(=O)c1cccc(c1)NC(=O)c1cccc(c1)O2 [Compound 2, 4-Ethyl-9,9-dioxo-5-(2,3,4,5,6-pentamethylphenyl)-2-oxa-9λ^6-thia-6,8,15,23-tetrazatetracyclo[15.3.1.13,7.110,14]tricosa-1(21),3,5,7(23),10,12,14(22),17,19-nonaen-16-one]",,> 6.00,> 60%,,
"CCc1c2nc(nc1-c1ccccc1C1CCC1)NS(=O)(=O)c1cccc(c1)NC(=O)c1cccc(c1)O2 [Compound 1, 5-(2-Cyclobutylphenyl)-4-ethyl-9,9-dioxo-2-oxa-9λ^6-thia-6,8,15,23-tetrazatetracyclo[15.3.1.13,7.110,14]tricosa-1(21),3,5,7(23),10,12,14(22),17,19-nonaen-16-one]",,> 6.00,> 60%,++ (++ is 30-60%),> 6.00
CCc1c2nc(nc1-c1ccccc1C(C)C)NS(=O)(=O)c1cccc(c1)NC(=O)c1cccc(c1C)O2 [Compound 15],,> 6.00,> 60%,+++ (+++ is >60%),> 6.00
"CCc1c2nc(nc1-c1c(C)cccc1C)NS(=O)(=O)c1cccc(c1)NC(=O)c1cccc(c1)O2 [Compound 4, 5-(2,6-Dimethylphenyl)-4-ethyl-9,9-dioxo-2-oxa-9λ^6-thia-6,8,15,23-tetrazatetracyclo[15.3.1.13,7.110,14]tricosa-1(21),3,5,7(23),10,12,14(22),17,19-nonaen-16-one]",,> 6.00,> 60%,+++ (+++ is >60%),5.52 to 6.00
CCc1c2nc(nc1-c1ccc([S+](C)[O-])cc1)NS(=O)(=O)c1cccc(c1)NC(=O)c1cccc(c1)O2 (stereo not shown) [Compound 18],,,< 30%,,
CCc1c2nc(nc1-c1ccccc1COC)NS(=O)(=O)c1cccc(c1)NC(=O)c1cccc(c1)O2 [Compound 12],,> 6.00,> 60%,,
CCc1c2nc(nc1-c1ccccc1C(C)C)NS(=O)(=O)c1cccc(c1)NC(=O)c1cccc(c1)O2 [Compound 16],,> 6.00,> 60%,+++ (+++ is >60%),> 6.00
